melting point [°C]	Structure (SMILES)
192	CS(=O)(=O)CC(=O)N[C@H]1CC[C@H](CCN2CCN(c3cc(C(F)(F)F)ccc3F)CC2)CC1 [Example 706, N-(4-{2-[4-(2-Fluoro-5-trifluoromethylphenyl)piperazin-1-yl]ethyl}cyclohexyl)-2-methanesulfonylacetamide]
214	N#CCC(=O)N[C@H]1CC[C@H](CCN2CCN(c3cc(F)c(F)c(F)c3F)CC2)CC1 [Example 708, 2-Cyano-N-(4-{2-[4-(2,3,4,5-tetrafluorophenyl)piperazin-1-yl]ethyl}cyclohexyl)acetamide]
189	N#CCC(=O)N[C@H]1CC[C@H](CCN2CCN(c3ccc(Cl)cc3Cl)CC2)CC1 [Example 709, 2-Cyano-N-(4-{2-[4-(2,4-dichlorophenyl)piperazin-1-yl]ethyl}cyclohexyl)acetamide]
126	CC(=O)CN1CCC(CCN2CCN(c3ccc4c(c3)OCCO4)CC2)CC1 [Example 711, 1-(4-{2-[4-(2,3-Dihydrobenzo[1,4]dioxin-6-yl)piperazin-1-yl]ethyl}piperidin-1-yl)propan-2-one]
195	COCCCC(=O)N[C@H]1CC[C@H](CCN2CCN(c3cc(C)cc(C)c3)CC2)CC1 [Example 715, N-(4-{2-[4-(3,5-Dimethylphenyl)-piperazin-1-yl]ethyl}cyclohexyl)-4-methoxybutanamide]
175	Cc1cc(C)cc(N2CCN(CC[C@H]3CC[C@H](NC(=O)CCC#N)CC3)CC2)c1 [Example 716, 3-Cyano-N-(4-{2-[4-(3,5-dimethylphenyl)piperazin-1-yl]ethyl}cyclohexyl)propanamide]
200	N#CCC(=O)N[C@H]1CC[C@H](CCN2CCN(c3cc(Cl)c(Cl)cc3Cl)CC2)CC1 [Example 717, 2-Cyano-N-(4-{2-[4-(2,4,5-trichlorophenyl)piperazin-1-yl]ethyl}cyclohexyl)acetamide]
172	COCC(=O)N[C@H]1CC[C@H](CCN2CCN(c3ccc(Cl)c(Cl)c3F)CC2)CC1 [Example 719, N-(4-{2-[4-(3,4-Dichloro-2-fluorophenyl)piperazin-1-yl]ethyl}cyclohexyl)-2-methoxyacetamide]
210	N#CCCC(=O)N[C@H]1CC[C@H](CCN2CCN(c3ccc(Cl)c(Cl)c3F)CC2)CC1 [Example 720, 3-Cyano-N-(4-{2-[4-(3,4-dichloro-2-fluorophenyl)piperazin-1-yl]ethyl}cyclohexyl)propanamide]
180	Cc1cc(F)cc(N2CCN(CC[C@H]3CC[C@H](NC(=O)CC#N)CC3)CC2)c1 [Example 725, 2-Cyano-N-(4-{2-[4-(3-fluoro-5-methylphenyl)piperazin-1-yl]ethyl}cyclohexyl)acetamide]
150	Cc1cc(F)cc(N2CCN(CC[C@H]3CC[C@H](NC(=O)CCCC#N)CC3)CC2)c1 [Example 726, 4-Cyano-N-(4-{2-[4-(3-fluoro-5-methylphenyl)piperazin-1-yl]ethyl}cyclohexyl)butanamide]
217	N#CCC(=O)N[C@H]1CC[C@H](CCN2CCN(c3ccc(Cl)c(Cl)c3Cl)CC2)CC1 [Example 729, 2-Cyano-N-(4-{2-[4-(2,3,4-trichlorophenyl)piperazin-1-yl]ethyl}cyclohexyl)acetamide]
158	N#CCCCCC(=O)N[C@H]1CC[C@H](CCN2CCN(c3cc(C(F)(F)F)ccc3F)CC2)CC1 [Example 731]
190	N#CCCC(=O)N[C@H]1CC[C@H](CCN2CCN(c3ccc(F)c(Cl)c3F)CC2)CC1 [Example 732, N-(4-{2-[4-(3-Chloro-2,4-difluorophenyl)piperazin-1-yl]ethyl}cyclohexyl)-3-cyanopropanamide]
94	N#CCCC(=O)N1CCC(CCN2CCN(c3cccc(Cl)c3Cl)CC2)CC1 [Example 733, 4-(4-{2-[4-(2,3-Dichlorophenyl)piperazin-1-yl]ethyl}piperidin-1-yl)-4-oxobutanonitrile]
159	COCC(=O)N[C@H]1CC[C@H](CCN2CCN(c3cccc(C(F)(F)F)c3C)CC2)CC1 [Example 734, 2-Methoxy-N-(4-{2-[4-(2-methyl-3-trifluoromethylphenyl)piperazin-1-yl]ethyl}cyclohexyl)acetamide]
173	COCCCC(=O)N[C@H]1CC[C@H](CCN2CCN(c3cccc(C(F)(F)F)c3C)CC2)CC1 [Example 735, 4-Methoxy-N-(4-{2-[4-(2-methyl-3-trifluoromethylphenyl)piperazin-1-yl]ethyl}cyclohexyl)butanamide]
182	O=C(CCC(F)(F)F)N[C@H]1CC[C@H](CCN2CCN(c3cc(C(F)(F)F)ccc3F)CC2)CC1 [Example 736, 4,4,4-Trifluoro-N-(4-{2-[4-(2-fluoro-5-trifluoromethyl-phenyl)piperazin-1-yl]ethyl}cyclohexyl)butanamide]
165	NC(=O)CC(=O)N[C@H]1CC[C@H](CCN2CCN(c3cc(C(F)(F)F)cc(C(F)(F)F)c3)CC2)CC1 [Example 738, N-(4-{2-[4-(3,5-Bistrifluoro-methylphenyl)piperazin-1-yl]ethyl}cyclohexyl)malonamide]

melting point [°C]	Structure (SMILES)
177	COCCCC(=O)N[C@H]1CC[C@H](CCN2CCN(c3cc(F)cc(Cl)c3)CC2)CC1 [Example 740, N-(4-{2-[4-(3-Chloro-5-fluorophenyl)piperazin-1-yl]ethyl}cyclohexyl)-4-methoxybutanamide]
168	COCCCC(=O)N[C@H]1CC[C@H](CCN2CCN(c3cc(C(F)(F)F)cc(C(F)(F)F)c3)CC2)CC1 [Example 741, N-(4-{2-[4-(3,5-Bistrifluoro-methylphenyl)piperazin-1-yl]ethyl}cyclohexyl)-4-methoxybutanamide]
132	COCC(=O)N[C@H]1CC[C@H](CCN2CCN(c3cc(F)cc(Cl)c3)CC2)CC1 [Example 742, N-(4-{2-[4-(3-Chloro-5-fluorophenyl)piperazin-1-yl]ethyl}cyclohexyl)-2-methoxyacetamide]
148	N#CCCC(=O)N[C@H]1CC[C@H](CCN2CCN(c3cc(F)cc(Cl)c3)CC2)CC1 [Example 743, N-(4-{2-[4-(3-Chloro-5-fluorophenyl)piperazin-1-yl]ethyl}cyclohexyl)-3-cyanopropanamide]
68	CC(=O)CN1CCC(CCN2CCN(c3cc(F)c(F)cc3F)CC2)CC1 [Example 744, 1-(4-{2-[4-(2,4,5-Trifluoro-phenyl)-piperazin-1-yl]ethyl}piperidin-1-yl)propan-2-one]
90	N#CCCCCC(=O)NC1CCC(CCN2CCN(c3cccc(C(F)(F)F)c3)CC2)CC1 (centres unmarked) [Example 745, 5-Cyano-pentanoic acid (4-{2-[4-(3-trifluoromethylphenyl)-piperazin-1-yl]ethyl}cyclohexyl) amide]
202	N#CCC(=O)N[C@H]1CC[C@H](CCN2CCN(c3c(F)c(F)c(F)c(F)c3F)CC2)CC1 [Example 753, 2-Cyano-N-{4-[2-(4-pentafluorophenylpiperazin-1-yl)ethyl]cyclohexyl}acetamide]
177	COCCCC(=O)N[C@H]1CC[C@H](CCN2CCN(c3ccc(F)c(C(F)(F)F)c3)CC2)CC1 [Example 754, N-(4-{2-[4-(4-Fluoro-3-trifluoromethylphenyl)piperazin-1-yl]ethyl}cyclohexyl)-4-methoxybutanamide]
171	COCCCC(=O)N[C@H]1CC[C@H](CCN2CCN(c3ccc(Cl)c(C(F)(F)F)c3)CC2)CC1 [Example 755, N-(4-{2-[4-(4-Chloro-3-trifluoromethylphenyl)piperazin-1-yl]ethyl}cyclohexyl)-4-methoxybutanamide]
126	N#CCCCC(=O)N[C@H]1CC[C@H](CCN2CCN(c3ccc(Cl)c(C(F)(F)F)c3)CC2)CC1 [Example 756, N-(4-{2-[4-(4-Chloro-3-trifluoromethylphenyl)piperazin-1-yl]ethyl}cyclohexyl)-4-cyanobutanamide]
177	COCCCC(=O)N[C@H]1CC[C@H](CCN2CCN(c3cc(F)cc(C(F)(F)F)c3)CC2)CC1 [Example 757, N-(4-{2-[4-(3-Fluoro-5-trifluoromethylphenyl)piperazin-1-yl]ethyl}cyclohexyl)-4-methoxybutanamide]
146	COCC(=O)N[C@H]1CC[C@H](CCN2CCN(c3ccc(F)c(C(F)(F)F)c3)CC2)CC1 [Example 760, N-(4-{2-[4-(4-Fluoro-3-trifluoromethylphenyl)piperazin-1-yl]ethyl}cyclohexyl)-2-methoxyacetamide]
171	COCCCC(=O)N[C@H]1CC[C@H](CCN2CCN(c3ccc(Cl)cc3Cl)CC2)CC1 [Example 761, N-(4-{2-[4-(2,4-Dichlorophenyl)piperazin-1-yl]ethyl}cyclohexyl)-4-methoxybutanamide]
162	N#CCCCC(=O)N[C@H]1CC[C@H](CCN2CCN(c3ccc(Cl)cc3Cl)CC2)CC1 [Example 762, 4-Cyano-N-(4-{2-[4-(2,4-dichlorophenyl)piperazin-1-yl]ethyl}cyclohexyl)butanamide]
196	N#CC1CC1C(=O)N[C@H]1CC[C@H](CCN2CCN(c3cc(C(F)(F)F)ccc3F)CC2)CC1 (some centres unmarked) [Example 763, 2-Cyano-cyclopropanecarb-oxylic acid (4-{2-[4-(2-fluoro-5-trifluoromethylphenyl)piperazin-1-yl]ethyl}cyclohexyl) amide]
179	N#CCCCC(=O)N[C@H]1CC[C@H](CCN2CCN(c3cc(Cl)c(Cl)cc3Cl)CC2)CC1 [Example 764, 4-Cyano-N-(4-{2-[4-(2,4,5-trichlorophenyl)piperazin-1-yl]ethyl}cyclohexyl)butanamide]
176	N#CCCCC(=O)N[C@H]1CC[C@H](CCN2CCN(c3ccc(Cl)c(Cl)c3Cl)CC2)CC1 [Example 765, 4-Cyano-N-(4-{2-[4-(2,3,4-trichlorophenyl)piperazin-1-yl]ethyl}cyclohexyl)butanamide]
68	CCC(=O)CN1CCC(CCN2CCN(c3cccc(Cl)c3Cl)CC2)CC1 [Example 771]
66	CON(C)C(=O)CN1CCC(CCN2CCN(c3cccc(C)c3C)CC2)CC1 [Example 772, 2-(4-{2-[4-(2,3-dimethylphenyl)piperazin-1-yl]ethyl}piperidin-1-yl)-N-methoxy-N-methylacetamide]

From patent publication US8802678B2, “Carbonylated (aza) cyclohexanes as dopamine D3 receptor ligands” (Bioprojet, priority 2006, dated 2014)
